# Measurements: the NIST ThermoML archive (doi:10.1021/acs.jced.8b01097)
# ± gives the expanded uncertainty stated by the source.
# Legend:
# [1] = 85 kPa, Liquid; for viscosity: Concentric cylinders viscometry; for mass density: Vibrating tube method
# [2] = xn = mol fraction of the nth substance listed; settings: 85 kPa, Liquid; for viscosity: Concentric cylinders viscometry; for mass density: Vibrating tube method
smiles,measurement,setting,value
NCCCO [3-amino-1-propanol],viscosity,[1]; 293.15 K,37.33 ± 2.3 mPa·s
same,mass density,[1]; 293.15 K,987.8 ± 1.3 kg/m3
same,viscosity,[1]; 298.15 K,28.59 ± 1.7 mPa·s
same,mass density,[1]; 298.15 K,984.3 ± 1.2 kg/m3
same,viscosity,[1]; 303.15 K,22.31 ± 1.4 mPa·s
same,mass density,[1]; 303.15 K,980.3 ± 1.2 kg/m3
same,viscosity,[1]; 308.15 K,17.67 ± 1.1 mPa·s
same,mass density,[1]; 308.15 K,976.2 ± 1.2 kg/m3
same,viscosity,[1]; 313.15 K,14.21 ± 0.86 mPa·s
same,mass density,[1]; 313.15 K,972.3 ± 1.2 kg/m3
same,viscosity,[1]; 318.15 K,11.58 ± 0.7 mPa·s
same,mass density,[1]; 318.15 K,968.5 ± 1.2 kg/m3
same,viscosity,[1]; 323.15 K,9.546 ± 0.58 mPa·s
same,mass density,[1]; 323.15 K,964.9 ± 1.2 kg/m3
CCCO [propan-1-ol] + CCC(C)O,viscosity,"[2]; 293.15 K, x2 = 0",2.215 ± 0.13 mPa·s
same,mass density,"[2]; 293.15 K, x2 = 0",803.5 ± 1 kg/m3
same,viscosity,"[2]; 298.15 K, x2 = 0",1.97 ± 0.12 mPa·s
same,mass density,"[2]; 298.15 K, x2 = 0",799.4 ± 1 kg/m3
same,viscosity,"[2]; 303.15 K, x2 = 0",1.752 ± 0.11 mPa·s
same,mass density,"[2]; 303.15 K, x2 = 0",795.4 ± 1 kg/m3
same,viscosity,"[2]; 308.15 K, x2 = 0",1.563 ± 0.094 mPa·s
same,mass density,"[2]; 308.15 K, x2 = 0",791.3 ± 1 kg/m3
same,viscosity,"[2]; 313.15 K, x2 = 0",1.399 ± 0.085 mPa·s
same,mass density,"[2]; 313.15 K, x2 = 0",787.2 ± 1 kg/m3
same,viscosity,"[2]; 318.15 K, x2 = 0",1.255 ± 0.076 mPa·s
same,mass density,"[2]; 318.15 K, x2 = 0",783.1 ± 1 kg/m3
same,viscosity,"[2]; 323.15 K, x2 = 0",1.129 ± 0.068 mPa·s
same,mass density,"[2]; 323.15 K, x2 = 0",778.9 ± 1 kg/m3
CC(C)O [propan-2-ol] + CCC(C)O,viscosity,"[2]; 293.15 K, x2 = 0",2.429 ± 0.15 mPa·s
same,mass density,"[2]; 293.15 K, x2 = 0",784.9 ± 1 kg/m3
same,viscosity,"[2]; 298.15 K, x2 = 0",2.095 ± 0.13 mPa·s
same,mass density,"[2]; 298.15 K, x2 = 0",780.7 ± 1 kg/m3
same,viscosity,"[2]; 303.15 K, x2 = 0",1.808 ± 0.11 mPa·s
same,mass density,"[2]; 303.15 K, x2 = 0",776.4 ± 1 kg/m3
same,viscosity,"[2]; 308.15 K, x2 = 0",1.567 ± 0.094 mPa·s
same,mass density,"[2]; 308.15 K, x2 = 0",772.1 ± 1 kg/m3
same,viscosity,"[2]; 313.15 K, x2 = 0",1.366 ± 0.082 mPa·s
same,mass density,"[2]; 313.15 K, x2 = 0",767.6 ± 1 kg/m3
same,viscosity,"[2]; 318.15 K, x2 = 0",1.195 ± 0.072 mPa·s
same,mass density,"[2]; 318.15 K, x2 = 0",763.1 ± 1 kg/m3
same,viscosity,"[2]; 323.15 K, x2 = 0",1.052 ± 0.064 mPa·s
same,mass density,"[2]; 323.15 K, x2 = 0",758.5 ± 1 kg/m3
CCCO [propan-1-ol],viscosity,[1]; 293.15 K,2.215 ± 0.13 mPa·s
same,mass density,[1]; 293.15 K,803.5 ± 1 kg/m3
same,viscosity,[1]; 298.15 K,1.97 ± 0.12 mPa·s
same,mass density,[1]; 298.15 K,799.4 ± 1 kg/m3
same,viscosity,[1]; 303.15 K,1.752 ± 0.11 mPa·s
same,mass density,[1]; 303.15 K,795.4 ± 1 kg/m3
same,viscosity,[1]; 308.15 K,1.563 ± 0.094 mPa·s
same,mass density,[1]; 308.15 K,791.3 ± 1 kg/m3
same,viscosity,[1]; 313.15 K,1.399 ± 0.085 mPa·s
same,mass density,[1]; 313.15 K,787.2 ± 1 kg/m3
same,viscosity,[1]; 318.15 K,1.255 ± 0.076 mPa·s
same,mass density,[1]; 318.15 K,783.1 ± 1 kg/m3
same,viscosity,[1]; 323.15 K,1.129 ± 0.068 mPa·s
same,mass density,[1]; 323.15 K,778.9 ± 1 kg/m3
CCC(C)O (stereo not drawn) [butan-2-ol] + NCCCO,viscosity,"[2]; 293.15 K, x1 = 1",3.743 ± 0.23 mPa·s
same,mass density,"[2]; 293.15 K, x1 = 1",806.2 ± 1 kg/m3
same,viscosity,"[2]; 298.15 K, x1 = 1",3.101 ± 0.19 mPa·s
same,mass density,"[2]; 298.15 K, x1 = 1",802 ± 1 kg/m3
same,viscosity,"[2]; 303.15 K, x1 = 1",2.579 ± 0.16 mPa·s
same,mass density,"[2]; 303.15 K, x1 = 1",797.9 ± 1 kg/m3
same,viscosity,"[2]; 308.15 K, x1 = 1",2.162 ± 0.13 mPa·s
same,mass density,"[2]; 308.15 K, x1 = 1",793.6 ± 1 kg/m3
same,viscosity,"[2]; 313.15 K, x1 = 1",1.828 ± 0.11 mPa·s
same,mass density,"[2]; 313.15 K, x1 = 1",789.2 ± 1 kg/m3
same,viscosity,"[2]; 318.15 K, x1 = 1",1.559 ± 0.094 mPa·s
same,mass density,"[2]; 318.15 K, x1 = 1",784.7 ± 1 kg/m3
same,viscosity,"[2]; 323.15 K, x1 = 1",1.318 ± 0.08 mPa·s
same,mass density,"[2]; 323.15 K, x1 = 1",780.2 ± 1 kg/m3
CCC(C)O (stereo not drawn) [butan-2-ol],viscosity,[1]; 293.15 K,3.743 ± 0.23 mPa·s
same,mass density,[1]; 293.15 K,806.2 ± 1 kg/m3
same,viscosity,[1]; 298.15 K,3.101 ± 0.19 mPa·s
same,mass density,[1]; 298.15 K,802 ± 1 kg/m3
same,viscosity,[1]; 303.15 K,2.579 ± 0.16 mPa·s
same,mass density,[1]; 303.15 K,797.9 ± 1 kg/m3
same,viscosity,[1]; 308.15 K,2.162 ± 0.13 mPa·s
same,mass density,[1]; 308.15 K,793.6 ± 1 kg/m3
same,viscosity,[1]; 313.15 K,1.828 ± 0.11 mPa·s
same,mass density,[1]; 313.15 K,789.2 ± 1 kg/m3
same,viscosity,[1]; 318.15 K,1.559 ± 0.094 mPa·s
same,mass density,[1]; 318.15 K,784.7 ± 1 kg/m3
same,viscosity,[1]; 323.15 K,1.318 ± 0.08 mPa·s
same,mass density,[1]; 323.15 K,780.2 ± 1 kg/m3
CC(C)O [propan-2-ol],viscosity,[1]; 293.15 K,2.429 ± 0.15 mPa·s
same,mass density,[1]; 293.15 K,784.9 ± 1 kg/m3
same,viscosity,[1]; 298.15 K,2.095 ± 0.13 mPa·s
same,mass density,[1]; 298.15 K,780.7 ± 1 kg/m3
same,viscosity,[1]; 303.15 K,1.808 ± 0.11 mPa·s
same,mass density,[1]; 303.15 K,776.4 ± 1 kg/m3
same,viscosity,[1]; 308.15 K,1.567 ± 0.094 mPa·s
same,mass density,[1]; 308.15 K,772.1 ± 1 kg/m3
same,viscosity,[1]; 313.15 K,1.366 ± 0.082 mPa·s
same,mass density,[1]; 313.15 K,767.6 ± 1 kg/m3
same,viscosity,[1]; 318.15 K,1.195 ± 0.072 mPa·s
same,mass density,[1]; 318.15 K,763.1 ± 1 kg/m3
same,viscosity,[1]; 323.15 K,1.052 ± 0.064 mPa·s
same,mass density,[1]; 323.15 K,758.5 ± 1 kg/m3
